Reference: ChEMBL document CHEMBL6074685, “Design, synthesis and biological evaluation of novel diaryl-substituted fused nitrogen heterocycles as tubulin polymerization inhibitors to overcome multidrug resistance in vitro and in vivo” (Eur J Med Chem, 2025)
≈ marks a conversion by molar mass, not a printed value. Calls of active or inactive are those of the source. The rule behind the calls is not given here.

What was measured:
A549/TR [1] = test: Antiproliferative activity against human A549/T cell assessed as cell growth inhibition incubated for 48 hrs by MTT assay; format: functional, cell-based
A549 [2] = test: Antiproliferative activity against human A549 cells assessed as cell growth inhibition incubated for 48 hrs by MTT assay; details: A549, 48 h
[3] = Resistance index, ratio of IC50 for human A549/T cells to IC50 for human A549 cells; format: functional
[4] = Metabolic stability in mouse liver microsome assessed as half life measured upto 50 mins by LC-MS/MS analysis; format: ADME; details: liver microsomes
[5] = Metabolic stability in human liver microsome assessed as half life measured upto 50 mins by LC-MS/MS analysis; format: ADME; details: liver microsomes
[6] = Metabolic stability in mouse liver microsome assessed as intrinsic clearance measured upto 50 mins by LC-MS/MS analysis; format: ADME; details: liver microsomes, read-out: CLH
[7] = Metabolic stability in human liver microsome assessed as intrinsic clearance measured upto 50 mins by LC-MS/MS analysis; format: ADME; details: liver microsomes, read-out: CLH
[8] = Aqueous solubility of the compound […] at pH 7.4 by HPLC analysis; format: physicochemical
[9] = Inhibition of pig brain tubulin polymerization measured upto 20 mins by absorbance based assay; design: species or system Sus scrofa
A549/TR [10] = test: Antitumor activity against human A549/T cell xenografted in BALB/c mouse assessed as reduction in tumor growth at 15 mg/kg, ip administered every 2 days; format: functional, organism-based; details: time 2.0 day
[11] = Toxicity in BALB/c mouse implanted with human A549/T cell assessed as change in body weight at 15 mg/kg, ip administered every 2 days; format: organism-based; details: in vivo, 48 h, time 2 day
A549/TR [12] = test: Antiproliferative activity against human A549/T cell assessed as cell growth inhibition at 80 nM incubated for 48 hrs by MTT assay; format: functional, cell-based
A549/TR [13] = test: Antiproliferative activity against human A549/T cell assessed as cell growth inhibition in presence of verapamil incubated for 48 hrs by MTT assay; format: functional, cell-based
Tubulin (Homo sapiens) = Tubulin (Homo sapiens) (UniProt P68371+Q9H4B7+P0DPH7+P68366+Q13509+Q71U36+P04350+Q3ZCM7+P07437+P68363+Q9BQE3+Q6PEY2+Q13885+Q9BVA1+Q9BUF5); test: Disruption of microtubule network in human A549/T cell assessed as disorganization of tubulin cytoskeleton at 1000 nM incubated for 24 hrs by immunofluorescence staining based confocal microscopy analysis
A549/TR [14] = test: Inhibition of colony formation in human A549/T cell at 1 uM incubated for 48 hrs by crystal violet staining based analysis; format: functional
A549 [15] = test: Inhibition of colony formation in human A549 cells at 1 uM incubated for 48 hrs by crystal violet staining based analysis; format: functional, cell-based

SMILES | IC50 (A549/TR [1]) | IC50 (A549 [2]) | Ratio IC50 [3] | further results
COc1ccc(-c2cc(-c3ccc(OC)c(N)c3)cc3[nH]cnc23)cc1 | 16600 nM | 11000 nM | 1.5 | 
COc1ccc(-c2cc(-c3cc(OC)c(OC)c(OC)c3)c3[nH]c(=O)[nH]c3c2)cc1F | 3020 nM | 1270 nM | 2.37 | 
COc1ccc2nc(-c3ccc(OC)c(F)c3)nc(Nc3cc(OC)c(OC)c(OC)c3)c2c1 | 8910 nM | 2040 nM | 4.37 | 
O=C(c1ccc(F)cc1)C1CCN(CCn2c(=O)[nH]c3ccccc3c2=O)CC1 [KETANSERIN] |  |  |  | half-life [4]: 13 min; half-life [5]: 37 min; CLint scaled [6]: 419 mL/min/kg; CLint scaled [7]: 47 mL/min/kg
COc1ccc(/C=C\c2cc(OC)c(OC)c(OC)c2)cc1O [COMBRETASTATIN A4] | 13 nM |  |  | solubility [8]: 1 µg/mL (≈ 3.16 µM); IC50 [9]: 1400 nM; Activity (A549/TR [10]): Active; Activity [11]: Non-toxic; half-life [5]: 14 min; CLint scaled [7]: 90 mL/min/kg
COc1cc(-c2cc(-c3ccc(C)cc3)cc3[nH]cnc23)cc(OC)c1OC | 970 nM | 680 nM | 1.42 | 
COc1ccc(CCN(C)CCCC(C#N)(c2ccc(OC)c(OC)c2)C(C)C)cc1OC (centres undefined) |  |  |  | Activity (A549/TR [12]): Active; Activity (A549/TR [1]): inactive
COc1cc(-c2cc(-c3ccc(Cl)c(N)c3)cc3[nH]cnc23)cc(OC)c1OC | 910 nM | 410 nM | 2.21 | 
COc1ccc(-c2cncc3[nH]c(=O)n(Cc4cc(OC)c(OC)c(OC)c4)c23)cc1O | > 50000 nM |  |  | 
CCC1=C[C@@H]2CN(C1)Cc1c([nH]c3ccccc13)[C@@](C(=O)OC)(c1cc3c(cc1OC)N(C)[C@H]1[C@@](O)(C(=O)OC)[C@H](OC(C)=O)[C@]4(CC)C=CCN5CC[C@]31[C@@H]54)C2 |  |  |  | Activity (A549/TR [13]): Active
COc1cc(-c2cc(Br)cc3[nH]cnc23)cc(OC)c1OC | 37100 nM | 28900 nM | 1.28 | 
COc1ccc(-c2nc3c(c(Nc4cc(OC)c(OC)c(OC)c4)n2)SCC3)cc1F | > 50000 nM | > 50000 nM |  | 
COc1ccc(-c2cc(-c3cc(OC)c(OC)c(OC)c3)c3nc[nH]c3c2)cc1F | 300 nM | 110 nM | 2.73 | 
CCOc1ccc(-c2cc(-c3cc(OC)c(OC)c(OC)c3)c3nc[nH]c3c2)cc1 | 2950 nM | 1030 nM | 2.86 | 
COc1ccc(-c2cc(-c3cc(OC)c(OC)c(OC)c3)c3nc[nH]c3c2)cc1N | 160 nM | 33 nM | 4.84 | 
COc1ccc(-c2nc(Nc3cc(OC)c(OC)c(OC)c3)c3ncn(C)c3n2)cc1F | 3910 nM | 1210 nM | 3.23 | 
COc1ccc(-c2nc3cnccc3n2-c2cc(OC)c(OC)c(OC)c2)cc1O | > 50000 nM |  |  | 
COc1ccc(-c2nc(Nc3cc(OC)c(OC)c(OC)c3)c3ccccc3n2)cc1F | > 50000 nM | 10300 nM | >4.84 | 
COc1ccc(-c2cc(-c3cc(OC)c(OC)c(OC)c3)c3cc[nH]c3c2)cc1F | 15800 nM | 4820 nM | 3.29 | 
COc1ccc(-c2cc3c([nH]c(=O)n3-c3cc(OC)c(OC)c(OC)c3)c(C(N)=O)n2)cc1O | 33800 nM |  |  | 
COc1cc(-c2cc(-c3ccc(C4CC4)cc3)cc3[nH]cnc23)cc(OC)c1OC | 6760 nM | 4920 nM | 1.34 | 
COc1cc(-c2cc(C)cc3[nH]cnc23)cc(OC)c1OC | > 50000 nM | > 50000 nM |  | 
COc1ccc(-c2cc(-c3ccccc3OC)c3nc[nH]c3c2)cc1N | 350 nM | 140 nM | 2.5 | 
COc1ccc(-c2cc(-c3cc(OC)c(OC)c(OC)c3)c3nc(C)[nH]c3c2)cc1O | 1900 nM | 530 nM | 3.58 | 
COc1cc(-c2cccc3[nH]cnc23)cc(OC)c1OC | > 50000 nM | > 50000 nM |  | 
COc1ccc(-c2cc(-c3cc(OC)c(OC)c(OC)c3)c3nc[nH]c3c2)cc1CO | 1580 nM | 470 nM | 3.36 | 

SMILES | IC50 (A549/TR [1]) | IC50 (A549 [2]) | Ratio IC50 [3] | further results
COc1ccc(-c2nc(Nc3cc(OC)c(OC)c(OC)c3)c3cccnc3n2)cc1F | > 50000 nM | 5360 nM | >9.43 | 
COc1ccc(Nc2nc(Nc3cc(OC)c(OC)c(OC)c3)c3ccccc3n2)cc1F | 11000 nM | 2770 nM | 3.96 | 
COc1ccc(-c2cncc3[nH]c(=O)n(-c4cc(OC)c(OC)c(OC)c4)c23)cc1F | > 50000 nM |  |  | 
COc1ccc(-c2nc(Nc3cc(OC)c(OC)c(OC)c3)c3cc(OC)c(OC)cc3n2)cc1F | > 50000 nM | > 50000 nM |  | 
CC(=O)O[C@H]1C(=O)[C@@]2(C)[C@H]([C@H](OC(=O)c3ccccc3)[C@]3(O)C[C@H](OC(=O)[C@H](O)[C@@H](NC(=O)c4ccccc4)c4ccccc4)C(C)=C1C3(C)C)[C@]1(OC(C)=O)CO[C@@H]1C[C@@H]2O [PACLITAXEL] | > 50000 nM | 2 nM | >25000 | Activity (Tubulin (Homo sapiens)): Active; Activity (A549/TR [10]): inactive; Activity [11]: Non-toxic; inhibition (A549/TR [14]): inactive; Activity (A549/TR [13]): Active; inhibition (A549 [15]): Active
COc1ccc(-c2nc3c(c(Nc4cc(OC)c(OC)c(OC)c4)n2)CCC3)cc1F | 35500 nM | 23000 nM | 1.54 | 
COc1cc(-c2cc(Cl)cc3[nH]cnc23)cc(OC)c1OC | > 50000 nM | > 50000 nM |  | 
COc1ccc(-n2c(=O)[nH]c3cnc(-c4cc(OC)c(OC)c(OC)c4)cc32)cc1O | > 50000 nM |  |  | 
COc1ccc(-c2cc(-c3cc(OC)c(OC)c(OC)c3)c3nc[nH]c3c2)cc1O | 240 nM | 59 nM | 4.06 | 
COc1ccc(-c2cc(Oc3cc(OC)c(OC)c(OC)c3)c3nc[nH]c3c2)cc1F | 10200 nM | 5130 nM | 1.99 | 
COc1ccc(-c2nc3c(c(Nc4cc(OC)c(OC)c(OC)c4)n2)CCCC3)cc1F | 11700 nM | 10400 nM | 1.12 | 
CC(=O)O[C@@]12CO[C@@H]1C[C@H](O)[C@@]1(C)C(=O)[C@H](O)C3=C(C)[C@@H](OC(=O)[C@H](O)[C@@H](NC(=O)OC(C)(C)C)c4ccccc4)C[C@@](O)([C@@H](OC(=O)c4ccccc4)[C@H]21)C3(C)C [DOCETAXEL ANHYDROUS] | 7840 nM | 1 nM | 7840 | Activity (A549/TR [13]): Active
COc1ccc(-c2nc(N(C)c3cc(OC)c(OC)c(OC)c3)c3ncn(C)c3n2)cc1F | 16600 nM | 9910 nM | 1.67 | 
COc1ccc(-c2cncc3[nH]c(=O)n(-c4cc(OC)c(OC)c(OC)c4)c23)cc1O | > 50000 nM |  |  | 
COc1cc(-c2cc(-c3ccc(C)c(F)c3)cc3[nH]cnc23)cc(OC)c1OC | 380 nM | 110 nM | 3.45 | 
COc1ccc(-c2cc3[nH]c(=O)[nH]c3c(Oc3cc(OC)c(OC)c(OC)c3)n2)cc1F | 22100 nM |  |  | 
COc1ccc(-c2cc(-c3cc(OC)c(OC)c(OC)c3)c3nc[nH]c3c2)cn1 | 390 nM | 290 nM | 1.34 | 
COc1cc(-c2cc(-c3ccc(C)c(O)c3)cc3[nH]cnc23)cc(OC)c1OC | 890 nM | 190 nM | 4.68 | 
COc1ccc(-c2cc(Oc3cc(OC)c(OC)c(OC)c3)c3ncn(C)c3c2)cc1F | 410 nM | 200 nM | 2.05 | 
COc1cc2c(c(OC)c1OC)-c1ccc(OC)c(=O)cc1[C@@H](NC(C)=O)CC2 [COLCHICINE] | 280 nM | 22 nM | 12 | Activity (A549/TR [13]): Active
COc1ccc(-c2cc(-c3cc(OC)c(OC)c(OC)c3)c3nc(C)[nH]c3c2)cc1F | 10200 nM | 5370 nM | 1.9 | 
COc1ccc(-c2cc(-c3cc(OC)c(OC)c(OC)c3)c3nc[nH]c3c2)cc1 | 1510 nM | 780 nM | 1.94 | 
COc1ccc(-c2cc(-c3cc(OC)c(OC)c(OC)c3)c3[nH]c(=O)[nH]c3c2)cc1O | 470 nM | 290 nM | 1.62 | 
CC[C@]1(O)C[C@H]2CN(CCc3c([nH]c4ccccc34)[C@@](C(=O)OC)(c3cc4c(cc3OC)N(C=O)[C@H]3[C@@](O)(C(=O)OC)[C@H](OC(C)=O)[C@]5(CC)C=CCN6CC[C@]43[C@@H]65)C2)C1 [VINCRISTINE] | 4350 nM | 21 nM | 207 | 
COc1cc(-c2cc(-c3ccc(C)c(N)c3)cc3[nH]cnc23)cc(OC)c1OC | 500 nM | 240 nM | 2.08 | 
